From patent publication EP4603105A1, “PHARMACEUTICAL COMPOSITION CONTAINING CYCLIC COMPOUND HAVING SELECTIVE KRAS INHIBITORY EFFECT AGAINST HRAS AND NRAS” (CHUGAI SEIYAKU KABUSHIKI KAISHA, priority 2022, dated 2024)
Where a SMILES comes first, the peptide text is derived from it. Bridges are numbered along the chain shown (N, C = ends). [ ]: non-standard residue; d: D form. The star is where a group is joined. hPhe(3-Cl-4-CF3) = N[C@@H](CCc1ccc(C(F)(F)F)c(Cl)c1)C(=O)O; NPrPhe(4-CF3) = CCCN[C@@H](Cc1ccc(C(F)(F)F)cc1)C(=O)O; NMePhe(4-Me) = CN[C@@H](Cc1ccc(C)cc1)C(=O)O; NMeGly(cPent) = CN[C@H](C(=O)O)C1CCCC1; Pro(4,4-Me2) = CC1(C)CN[C@H](C(=O)O)C1; Hyp = O=C(O)[C@@H]1C[C@@H](O)CN1; NMeD = CN[C@@H](CC(=O)O)C(=O)O; NMeL = CN[C@@H](CC(C)C)C(=O)O; Morpholide = C1CN(*)CCO1; NMeA = CN[C@@H](C)C(=O)O; Ac5c = NC1(C(=O)O)CCCC1; Aze = O=C(O)[C@@H]1CCN1; Ac4c = NC1(C(=O)O)CCC1; NEtG = CCNCC(=O)O; Sar = CNCC(=O)O

Columns and labels:
[1] = target: GDP-bound NRAS wild-type protein (Homo sapiens, UniProt P01111); assay: Binding to NRAS by surface plasmon resonance (SPR), KD and KD ratio to KRAS
Sequence of GDP-bound NRAS wild-type protein (P01111 whole entry): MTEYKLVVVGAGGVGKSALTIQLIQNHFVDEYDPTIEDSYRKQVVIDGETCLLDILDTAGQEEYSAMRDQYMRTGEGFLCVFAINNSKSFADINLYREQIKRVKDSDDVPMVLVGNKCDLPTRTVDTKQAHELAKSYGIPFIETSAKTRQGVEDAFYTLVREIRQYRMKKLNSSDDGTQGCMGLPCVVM
Outline: (§1)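 Measured at 30°C: SPR with GDP-loaded, E. coli-expressed biotin-Avi RAS captured (~100–300 RU), ascending 75 s compound injections, HBS pH 7.4 with GDP, MgCl2, 4% DMSO. KD from 1:1 fit.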

[2] = tested on: human lung cancer strain NCI-H441; type: cell-based
Outline: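 Signal came from […] measured per well once the reagent was added. Beforehand, cells were cultured at 37°C and 5% carbon dioxide on a compound series serially diluted in dimethyl sulfoxide.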

HRAS wild-type protein = HRAS wild-type protein (Homo sapiens, UniProt P01112); assay: Binding to HRAS by surface plasmon resonance (SPR), KD and KD ratio to KRAS
Sequence of HRAS wild-type protein (P01112 whole entry): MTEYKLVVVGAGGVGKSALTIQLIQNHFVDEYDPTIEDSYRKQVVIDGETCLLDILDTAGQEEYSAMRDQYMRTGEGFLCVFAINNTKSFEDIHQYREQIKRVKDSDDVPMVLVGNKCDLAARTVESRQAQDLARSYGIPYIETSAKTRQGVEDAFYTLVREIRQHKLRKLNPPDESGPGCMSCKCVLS
Outline: as §1

[3] = ratio of KD for GDP-bound NRAS wild-type protein to KD for KRAS
[4] = ratio of KD for HRAS wild-type protein to KD for KRAS
[5] = ratio of the KD value with respect to GDP-bound NRAS wild-type protein to the KD value with respect to KRAS
[6] = ratio of the KD value with respect to HRAS wild-type protein to the KD value with respect to KRAS

Compound | NRAS /KRAS [1, 3] | IC50 [2] [nM] | HRAS /KRAS (HRAS wild-type protein; [4]) | NRAS /KRAS [1, 5] | HRAS /KRAS (HRAS wild-type protein; [6]) | NRAS /KRAS ([1]; ratio of KD value for GDP-bound NRAS wild-type protein to KD value for KRAS (SPR)) | HRAS /KRAS (HRAS wild-type protein; ratio of KD value for HRAS wild-type protein to KD value for KRAS (SPR))
CCC[C@H]1C(=O)N[C@@H]([C@@H](C)CC)C(=O)N2CCC[C@H]2C(=O)N(C)[C@H]2C/C=C\CCN(C2=O)[C@@H](Cc2ccc(C(F)(F)F)cc2)C(=O)N(C)CC(=O)N[C@@H](CCc2cc(F)c(C(F)(F)F)c(F)c2)C(=O)N2C[C@H](OCC)C[C@H]2C(=O)N(C)C2(CCC2)C(=O)N(C)[C@@H](C2CCCC2)C(=O)N(C)[C@H](C(=O)N2CCCCC2)CC(=O)N1C [PP3114] | AA (a compound having 20 or more is denoted as AA) | 14.7 | A (a compound having 10 or more and less than 20 is denoted as A) |  |  |  | 
C#CC[C@H]1C(=O)N[C@@H]([C@@H](C)CC)C(=O)N(C)CC(=O)N(C)[C@H]2C/C=C\CCN(C2=O)[C@@H](Cc2ccc(C(F)(F)F)cc2)C(=O)N(C)CC(=O)N[C@@H](CCc2ccc(C(F)(F)F)c(OC)c2)C(=O)N2C[C@H](OCC)C[C@H]2C(=O)NC2(CC(C)(C)C2)C(=O)N(C)[C@@H](C2CCCC2)C(=O)N(C)[C@H](C(=O)N(C)CC)CC(=O)N1C [PP2051] |  | 6.9 |  | A (a compound having 10 or more and less than 20 is denoted as A) | A (a compound having 10 or more and less than 20 is denoted as A) |  | 
CCCN1C(=O)CN(C)C(=O)CNC(=O)[C@H]([C@@H](C)CC)NC(=O)[C@H](CC(C)C)N(C)C(=O)C[C@@H](C(=O)N2CCOCC2)N(C)C(=O)[C@H](C2CCCC2)N(C)C(=O)C2(CCCC2)NC(=O)[C@@H]2CCCN2C(=O)[C@H](CCc2ccc(C(F)(F)F)c(Cl)c2)NC(=O)CN(C)C(=O)[C@@H]1Cc1ccc(C(F)(F)F)cc1 [PP0155] ([NMeL]IG[Sar][NPrPhe(4-CF3)][Sar][hPhe(3-Cl-4-CF3)]P[Ac5c][NMeGly(cPent)][NMeD]-Morpholide; lactam N-11) | B (a compound having 3 or more and less than 10 is denoted as B) | 2.8 | C (A compound having a KD ratio of 0.1 or more and less than 3 is denoted as C) |  |  |  | 
CC[C@H](C)[C@@H]1NC(=O)[C@H](CC(C)C)N(C)C(=O)C[C@@H](C(=O)N2CCOCC2)N(C)C(=O)[C@H](C2CCCC2)N(C)C(=O)C2(CCCC2)NC(=O)[C@@H]2CCCN2C(=O)[C@H](CCc2ccc(C(F)(F)F)c(Cl)c2)NC(=O)CN(C)C(=O)[C@H](Cc2ccc(C)cc2)N(C)C(=O)[C@@H]2CCN2C(=O)[C@H](C)N(C)C1=O [PP0001] ([NMeL]I[NMeA][Aze][NMePhe(4-Me)][Sar][hPhe(3-Cl-4-CF3)]P[Ac5c][NMeGly(cPent)][NMeD]-Morpholide; lactam N-11) | C (A compound having a KD ratio of 0.1 or more and less than 3 is denoted as C) | 6.3 | C (A compound having a KD ratio of 0.1 or more and less than 3 is denoted as C) |  |  |  | 
CCO[C@@H]1C[C@H]2C(=O)NC3(CCC3)C(=O)N(C)[C@@H](C3CCCC3)C(=O)N(C)[C@H](C(=O)N(C)C)CC(=O)N(C)[C@@H](CC3CCCC3)C(=O)N[C@@H]([C@@H](C)CC)C(=O)N(C)CC(=O)N(C)[C@H]3C/C=C\CCN(C3=O)[C@@H](Cc3ccc(C)cc3)C(=O)N(C)CC(=O)N[C@@H](CCc3cc(C)c(C(F)F)c(C)c3)C(=O)N2C1 [PP2675] | A (a compound having 10 or more and less than 20 is denoted as A) | 138 | A (a compound having 10 or more and less than 20 is denoted as A) |  |  |  | 
CCC[C@H]1C(=O)N[C@@H]([C@@H](C)CC)C(=O)N2CCC[C@H]2C(=O)N(C)[C@H]2C/C=C\CCN(C2=O)[C@@H](Cc2ccc(C)cc2)C(=O)N(C)CC(=O)N[C@@H](CCc2ccc(C(F)(F)F)c(OC)c2)C(=O)N2C[C@H](OCC)C[C@H]2C(=O)N(C)C2(CCC2)C(=O)N(C)[C@@H](C2CCCC2)C(=O)N(C)[C@H](C(=O)N2CCCCC2)CC(=O)N1C [PP3100] | A (a compound having 10 or more and less than 20 is denoted as A) | 15 | B (a compound having 3 or more and less than 10 is denoted as B) |  |  |  | 
CCCN1C(=O)[C@@H]2CCN2C(=O)[C@H](C)N(C)C(=O)[C@H]([C@@H](C)CC)NC(=O)[C@H](CC(C)C)N(C)C(=O)C[C@@H](C(=O)N2CCOCC2)N(C)C(=O)[C@H](C2CCCC2)N(C)C(=O)C2(CCC2)NC(=O)[C@@H]2CCCN2C(=O)[C@H](CCc2ccc(C(F)(F)F)c(Cl)c2)NC(=O)CN(C)C(=O)[C@@H]1Cc1ccc(C(F)(F)F)cc1 [PP0198] ([NMeL]I[NMeA][Aze][NPrPhe(4-CF3)][Sar][hPhe(3-Cl-4-CF3)]P[Ac4c][NMeGly(cPent)][NMeD]-Morpholide; lactam N-11) | C (A compound having a KD ratio of 0.1 or more and less than 3 is denoted as C) | 5.7 | B (a compound having 3 or more and less than 10 is denoted as B) |  |  |  | 
CCO[C@@H]1C[C@H]2C(=O)NC3(CCC3)C(=O)N(C)[C@@H](C3CCCC3)C(=O)N(C)[C@H](C(=O)N(C)C)CC(=O)N(C)[C@@H](CC(C)C)C(=O)N[C@@H]([C@@H](C)CC)C(=O)N3CC[C@H]3C(=O)N(C)[C@H]3C[C@@H](C)CCN(C3=O)[C@@H](Cc3ccc(C(F)(F)F)cc3)C(=O)N(C)CC(=O)N[C@@H](CCc3cc(F)c(C(F)(F)F)c(F)c3)C(=O)N2C1 [PP1019] | C (A compound having a KD ratio of 0.1 or more and less than 3 is denoted as C) | 7.4 | B (a compound having 3 or more and less than 10 is denoted as B) |  |  |  | 
CCO[C@@H]1C[C@H]2C(=O)NC3(CC(C)(C)C3)C(=O)N(C)[C@@H](C3CCCC3)C(=O)N(C)[C@H](C(=O)N(CC)CC)CC(=O)N(C)[C@@H](CC)C(=O)N[C@@H]([C@@H](C)CC)C(=O)N(C)CC(=O)N(C)[C@H]3C/C=C\CCN(C3=O)[C@@H](Cc3ccc(C)cc3)C(=O)N(C)CC(=O)N[C@@H](CCc3ccc(C(F)(F)F)c(OC)c3)C(=O)N2C1 [PP1881] |  | 16.7 |  |  |  | A (a compound having 10 or more and less than 20 is denoted as A) | A (a compound having 10 or more and less than 20 is denoted as A)
CCCN1C(=O)CN(C)C(=O)CNC(=O)[C@H]([C@@H](C)CC)NC(=O)[C@H](CC(C)C)N(C)C(=O)C[C@@H](C(=O)N2CCOCC2)N(C)C(=O)[C@H](C2CCCC2)N(C)C(=O)C2(CCCC2)NC(=O)[C@@H]2CC(C)(C)CN2C(=O)[C@H](CCc2ccc(C(F)(F)F)c(Cl)c2)NC(=O)CN(C)C(=O)[C@@H]1Cc1ccc(C(F)(F)F)cc1 [PP0448] ([NMeL]IG[Sar][NPrPhe(4-CF3)][Sar][hPhe(3-Cl-4-CF3)][Pro(4,4-Me2)][Ac5c][NMeGly(cPent)][NMeD]-Morpholide; lactam N-11) |  | 2 |  | B (a compound having 3 or more and less than 10 is denoted as B) | C (A compound having a KD ratio of 0.1 or more and less than 3 is denoted as C) |  | 
CCO[C@@H]1C[C@H]2C(=O)NC3(CCC3)C(=O)N(C)[C@@H](C(CC)CC)C(=O)N(C)[C@H](C(=O)N3CCCC3)CC(=O)N(C)[C@H]3CCCCC/C=C/c4ccc(cc4)C[C@@H](C(=O)N(C)CC(=O)N[C@@H](CCc4ccc(Cl)c(Cl)c4)C(=O)N2C1)N1CC/C=C\C[C@@H](C1=O)N(C)C(=O)CN(C)C(=O)[C@H]([C@@H](C)CC)NC3=O [PP3052] | AA (a compound having 20 or more is denoted as AA) | 27.6 | A (a compound having 10 or more and less than 20 is denoted as A) |  |  |  | 
CCCN1C(=O)CN(C)C(=O)[C@H](C)NC(=O)[C@H]([C@@H](C)CC)NC(=O)[C@H](CC(C)C)N(C)C(=O)C[C@@H](C(=O)N2CCOCC2)N(C)C(=O)[C@H](C2CCCC2)N(C)C(=O)C2(CCCC2)NC(=O)[C@@H]2CCCN2C(=O)[C@H](CCc2ccc(C(F)(F)F)c(Cl)c2)NC(=O)CN(C)C(=O)[C@@H]1Cc1ccc(C(F)(F)F)cc1 [PP1971] ([NMeL]IA[Sar][NPrPhe(4-CF3)][Sar][hPhe(3-Cl-4-CF3)]P[Ac5c][NMeGly(cPent)][NMeD]-Morpholide; lactam N-11) |  | 38 |  | B (a compound having 3 or more and less than 10 is denoted as B) | B (a compound having 3 or more and less than 10 is denoted as B) |  | 
CCCN1C(=O)CN(C)C(=O)CN(CC)C(=O)[C@H]([C@@H](C)CC)NC(=O)[C@H](CC(C)C)N(C)C(=O)C[C@@H](C(=O)N(C)C)NC(=O)[C@H](C2CCCC2)N(C)C(=O)C2(CCC2)NC(=O)[C@@H]2C[C@@H](OCC)CN2C(=O)[C@H](CCc2ccc(C(F)(F)F)c(Cl)c2)NC(=O)CN(C)C(=O)[C@@H]1Cc1ccc(C(F)(F)F)cc1 [PP0372] ([NMeL]I[NEtG][Sar][NPrPhe(4-CF3)][Sar][hPhe(3-Cl-4-CF3)][Hyp](Et)[Ac4c][NMeGly(cPent)]D-NMe2; lactam N-11) | B (a compound having 3 or more and less than 10 is denoted as B) | 34.2 | B (a compound having 3 or more and less than 10 is denoted as B) |  |  |  | 
